# Assay results from publication PMC7168333, “5-(Carbamoylmethylene)-oxazolidin-2-ones as a Promising Class of Heterocycles Inducing Apoptosis Triggered by Increased ROS Levels and Mitochondrial Dysfunction in Breast and Cervical Cancer” (Biomedicines, 2020).
# Key:
# [1] = tested on: HeLa cells; experiment: MTT cell viability assay, HeLa; type: cell-based; settings: Homo sapiens, 72 h
# Experimental: Cell viability was assessed by using 3-(4,5-dimethylthiazol-2-y1)-2,5-diphenyltetrazolium bromide (MTT) assay (Sigma-Aldrich, Milan, Italy), as already reported. In brief, MCF-7 and HeLa cells (2 × 10^4 cells/well) were seeded in a 48-well plate and grown in complete medium overnight, then they were switched into DMEM-F12 supplemented with 2% FBS and treated with increasing concentrations (1, 10, 50, 75, and 100 µM) of different oxazolidin-2-ones derivatives (OA-OI) or doxorubicin for 72 h. Untreated cells were added with the vehicle (DMSO) and used as a control. After treatment, fresh MTT reagent (used at a final concentration of 0.5 mg/mL) was added, prolonging incubation for 2 h according to the manufacturer’s protocol. Absorbance at 570 nm was measured in each well, including controls, and every experiment was carried out in triplicate.
# (§1) For each sample, mean absorbance was expressed as a percentage of the control and plotted vs. drug concentration, in order to determine the IC50 value (i.e., drug concentration able to decrease cell viability by 50% with respect to the control) for each cell line, generating a sigmoidal dose–response curve by the use of GraphPad Prism 7 software (GraphPad Inc., San Diego, CA, USA). Mean values and standard deviations (SD) of three independent experiments carried out in triplicate were reported. […]
# [2] = tested on: MCF-7 cells; experiment: MTT cell viability assay, MCF-7; type: cell-based; settings: Homo sapiens, MCF7, 72 h
# Experimental: Cell viability was assessed by using 3-(4,5-dimethylthiazol-2-y1)-2,5-diphenyltetrazolium bromide (MTT) assay (Sigma-Aldrich, Milan, Italy), as already reported. […] Untreated cells were added with the vehicle (DMSO) and used as a control. After treatment, fresh MTT reagent (used at a final concentration of 0.5 mg/mL) was added, prolonging incubation for 2 h according to the manufacturer’s protocol. Absorbance at 570 nm was measured in each well, including controls, and every experiment was carried out in triplicate.
# as §1
# [3] = tested on: MCF-10A cells; experiment: MTT cell viability assay, MCF-10A; type: cell-based, human; settings: for IC50: Homo sapiens, MCF-10A, 72 h
# [4] = tested on: MCF-7 cells; experiment: Cell cycle analysis (PI staining, flow cytometry), MCF-7; type: cell-based, human; settings: MCF-7, 15 µM, 24 h
# Experimental: (§2) In order to assess cell cycle analysis, MCF-7 and HeLa cells were seeded in 6-well plates, at a density of 2.5 × 10^5 cells/well, then they were added to DMSO or treated using 15 and 30 µM OI, respectively, for 24 h. MCF-10A were seeded as described before, then they were added to DMSO or treated using 30 µM OI, the highest concentration used for cancer cells, for 24 h. Next, cells were harvested by trypsinization, rinsed twice with cold PBS, and pelleted by centrifugation at 1500 rpm for 5 min. Pellets were re-suspended in 70% ice-cold ethanol for 30 min at 4 °C to perform cell fixation. Then, samples were rinsed twice with PBS and stained using a solution containing 3.8 mM sodium citrate (Sigma-Aldrich, Milan, Italy), 100 μg/mL RNAse (Sigma-Aldrich, Milan, Italy), 50 μg/mL propidium iodide (PI, Sigma-Aldrich, Milan, Italy), and 0.1% Igepal (Sigma-Aldrich, Milan, Italy) in PBS for 1 h at 37 °C. Subsequent cytofluorimetric analysis was achieved by BD FACSJazz™ Cell Sorter (Becton Dickinson, Franklin Lakes, NJ, USA).
# [5] = tested on: HeLa cells; experiment: Cell cycle analysis (PI staining, flow cytometry), HeLa; type: cell-based, human; settings: 30 µM, 24 h
# Experimental: as §2
# [6] = tested on: MCF-10A cells; experiment: Cell cycle analysis (PI staining, flow cytometry), MCF-10A; type: cell-based, human; settings: 30 µM, 24 h
# Experimental: as §2
# [7] = tested on: MCF-7 cells; experiment: TUNEL assay, MCF-7; type: cell-based, human; settings: MCF-7, 15 µM, 72 h; control 2.3%
# Experimental: (§3) Apoptosis was tested by enzymatic labeling of DNA strand breaks using terminal deoxynucleotidyl transferase-mediated deoxyuridine triphosphate nick end-labeling (TUNEL) assay, following the guidelines of the manufacturer (TUNEL assay kit, Promega, Madison, WI, USA). Briefly, MCF-7 and HeLa cells were added with DMSO or treated with 15 and 30 µM OI, respectively, for 72 h. MCF-10A were added to DMSO or treated using 30 µM OI, for 72 h. Next, nuclear staining was achieved using 0.2 mg/mL 4′,6- diamidino-2-phenylindole (DAPI, Sigma-Aldrich, Milan, Italy) and samples were examined using a fluorescent microscope (Olympus BX4 equipped with CSV1.14 software employing a CAMXC-30 for image acquisition). Images were representative of three independent experiments.
# [8] = tested on: HeLa cells; experiment: TUNEL assay, HeLa; type: cell-based, human; settings: 30 µM, 72 h, control 10%
# Experimental: as §3
# [9] = tested on: MCF-10A cells; experiment: TUNEL assay, MCF-10A; type: cell-based, human; settings: 30 µM, 72 h
# Experimental: as §3
# [10] = tested on: cyclin D1, CDK4, phosphorylated Rb in MCF-7 cells; experiment: Western blot of cell cycle regulators, MCF-7; type: cell-based, human; settings: MCF-7, 15 µM, 24 and 72 h
# Experimental: (§4) Western blot analysis was conducted basically as previously reported. […] In order to obtain total cell lysates, harvested cells were lysed using 200 μL of lysis buffer as previously reported. Cytosolic and mitochondrial fractions were isolated as already described. Identical amounts of proteins from total lysate, mitochondrial, or cytosolic fraction were resolved on SDS-polyacrylamide gel, blotted to nitrocellulose membrane, and probed with proper primary antibodies (Santa Cruz Biotechnology, Dallas, TX, USA). Immunoreactive products were identified by using ECL Western blotting detection system (Bio-Rad Laboratories, Hercules, CA, USA).
# [11] = tested on: procaspases -8 and -9 in MCF-7 cells; experiment: Western blot of procaspases -8 and -9, MCF-7; type: cell-based, human; settings: MCF-7, 15 µM, 24 and 72 h
# Experimental: as §4
# [12] = tested on: procaspases -8 and -9 in HeLa cells; experiment: Western blot of procaspases -8 and -9, HeLa; type: cell-based, human; settings: 30 µM, 24 and 72 h
# Experimental: as §4
# [13] = tested on: MCF-7 cells; experiment: Mitochondrial staining (MitoTracker Orange / Deep-Red, FACS), MCF-7; type: cell-based, human; settings: MCF-7, 15 µM, 24 h
# Experimental: (§5) Mitochondrial activity was assessed using MitoTracker Orange (Invitrogen, Milan, Italy), a fluorescent dye that enters mitochondria in a membrane potential-dependent way. Mitochondrial mass was determined using MitoTracker Deep-Red (Invitrogen, Milan, Italy), a far red-fluorescent dye that is largely used to label mitochondria. Both MCF-7 and HeLa cells were treated using 15 and 30 µM OI, respectively, for 24 h. Control cells were added with DMSO and simultaneously processed. Then, cells were incubated in the dark for 30–60 min at 37 °C with pre-warmed MitoTracker staining solution (diluted in PBS/CM to reach a final concentration of 10 nM). All the next steps were still carried out in the dark. Cells were rinsed in PBS, harvested, and re-suspended in 300 μL of PBS/CM. Cells were then examined by flow cytometry using Fortessa (BD Bioscience, San Jose, CA, USA). Data analysis was performed using FlowJo software (Tree Star Inc., Ashland, OR, USA).
# [14] = tested on: HeLa cells; experiment: Mitochondrial staining (MitoTracker Orange / Deep-Red, FACS), HeLa; type: cell-based, human; settings: 30 µM, 24 h
# Experimental: as §5
# [15] = tested on: cytochrome c in MCF-7 cells; experiment: Western blot of cytochrome c in cytosolic and mitochondrial fractions, MCF-7; type: cell-based, human; settings: MCF-7, 15 µM, 24 h, vs control
# Experimental: (§6) Both MCF-7 and HeLa cells were cultured in 100 mm dishes (1 × 10^7 cells/dish), added with the vehicle alone (DMSO) or treated for 24 h with 15 and 30 µM OI, respectively. Then, mitochondria extraction was performed as previously described. In brief, cells were harvested, resuspended in isolation buffer for cells (IBC, containing 200 mM sucrose, 10 mM Tris/MOPS, 1 mM EDTA/Tris, pH 7.4), and homogenized by a glass potter homogenizer. Nuclei and unbroken cells were removed by centrifugation (600× g for 10 min). Supernatants were centrifuged for 30 min at 10,000× g, obtaining upper cytosolic fractions and mitochondrial pellets; the latter were resuspended in RIPA buffer (PBS pH 7.4, 1% NP-40, 0.5% sodium deoxycholate, and 0.1% sodium dodecyl sulfate) containing a protease and phosphatase inhibitor cocktail (Sigma-Aldrich, Milan, Italy). Protein concentration was determined using Bio-Rad Protein Assay (Bio-Rad Laboratories, Hercules, CA, USA) and Western blotting was performed as next described.
# (§7) Western blot analysis was conducted basically as previously reported. In detail, MCF-7 and HeLa cells were grown to 70–80% confluence, added to DMSO, or treated with 15 and 30 µM OI, respectively, for 24 h. In order to obtain total cell lysates, harvested cells were lysed using 200 μL of lysis buffer as previously reported. Cytosolic and mitochondrial fractions were isolated as already described. […]
# [16] = tested on: cytochrome c in HeLa cells; experiment: Western blot of cytochrome c in cytosolic and mitochondrial fractions, HeLa; type: cell-based, human; settings: 30 µM, 24 h, vs control
# Experimental: as §6, §7
# [17] = tested on: MCF-7 cells; experiment: ROS production (CM-H2DCFDA, FACS), MCF-7; type: cell-based, human; settings: 24 h
# Experimental: (§8) Intracellular level of reactive oxygen species (ROS) was assessed by using CM-H2DCFDA (Invitrogen, Milan, Italy), a cell-permeable fluorogenic probe, which is deacetylated by intracellular esterases and can be oxidized in the presence of intracellular ROS, becoming highly fluorescent. MCF-7 and HeLa cells were seeded into 96-well tissue culture plates at a density of 5 × 10^4 cells/well and treated with 15 and 30 µM OI, respectively, for 24 h. Control cells were added with DMSO and processed at the same time. Then, cells were washed with PBS and stained in the dark with CM-H2DCFDA (diluted in PBS/CM to a final concentration of 1 μM) for 20 min at 37 °C. Next steps were also performed in the dark, in order to avoid probe oxidation. Cells were washed three times with PBS, harvested, re-suspended in PBS/CM, and fluorescence was measured by using Fortessa (BD Bioscience, San Jose, CA, USA). ROS levels were estimated by using mean fluorescent intensity of the viable cell population. Results were analyzed by the use of FlowJo software (Tree Star Inc., Ashland, OR, USA).
# [18] = tested on: HeLa cells; experiment: ROS production (CM-H2DCFDA, FACS), HeLa; type: cell-based, human; settings: 24 h
# Experimental: as §8
compound,measurement,setting,value
CC1(C)/C(=C\C(=O)N2CCOCC2)OC(=O)N1Cc1ccccc1 [OF],IC50,[1],159 µM
same,IC50,[2],409 µM
same,IC50,[3],718 µM
"CCN(CC)C(=O)/C=C1/OC(=O)N(Cc2ccccc2)C1(C)C [OI, (E)-2-(3-benzyl-4,4-dimethyl-2-oxooxazolidin-5-ylidene)-N,N-diethylacetamide]",IC50,[1],31.1 µM
same,IC50,[2],17.7 µM
same,IC50,[3],351 µM
same,anti-proliferative effect / cytotoxicity on non-tumorigenic MCF-10A cells,[3]; up to 72 h,no significant anti-proliferative effect
same,increase of the percentage of cells in the G0/G1 phase,[4],15%
same,reduction of the fraction of cells in the S-phase,[4],30%
same,cells in the G1 phase,[5],remarkable increase
same,cells in the S phase,[5],considerable decrease
same,effect on the cell cycle,[6],did not evidence any noticeable effect
same,apoptotic rate (TUNEL-positive cells),[7],34.3%
same,apoptotic rate (TUNEL-positive cells),[8],53.2%
same,effect in TUNEL assay,[9],did not evidence any noticeable effect
same,CDK4 protein expression levels,[10],remained unaffected
same,cyclin D1 protein content,[10]; time dependent,significantly reduced
same,phosphorylated Rb protein content,[10]; time dependent,significantly reduced
same,expression level of activated caspase-8,[11],unaffected
same,proteolytic cleavage of pro-caspase-9 into its active form,[11],time-dependently activated
same,expression level of activated caspase-8,[12],unaffected
same,proteolytic cleavage of pro-caspase-9 into its active form,[12],time-dependently activated
same,mitochondrial mass (MitoTracker Deep-Red),[13],decrease
same,mitochondrial membrane potential (MitoTracker Orange),[13],decrease
same,mitochondrial membrane potential per mitochondria (ratio Orange vs. Deep-Red),[13],significantly decreased
same,mitochondrial mass (MitoTracker Deep-Red),[14],decrease
same,mitochondrial membrane potential (MitoTracker Orange),[14],decrease
same,mitochondrial membrane potential per mitochondria (ratio Orange vs. Deep-Red),[14],significantly decreased
same,cytochrome c levels in the cytosolic fraction,[15],significant increases
same,cytochrome c mitochondrial levels,[15],concomitant decreases
same,cytochrome c levels in the cytosolic fraction,[16],significant increases
same,cytochrome c mitochondrial levels,[16],concomitant decreases
same,ROS increase in the presence of NAC,"[17]; MCF-7, 15 µM OI + NAC",no longer evident
same,ROS generation,"[17]; MCF-7, 15 µM, vs control",significantly stimulated
same,ROS increase in the presence of NAC,[18]; 30 µM OI + NAC,no longer evident
same,ROS generation,"[18]; 30 µM, vs control",significantly stimulated
CC1(C)/C(=C/C(=O)N2CCCCC2)OC(=O)N1Cc1ccccc1 [OB],IC50,[1],98.2 µM
same,IC50,[2],122 µM
same,IC50,[3],470 µM
CC1(C)/C(=C\C(=O)N2CCCCC2)OC(=O)N1Cc1ccccc1 [OA],IC50,[1],52.5 µM
same,IC50,[2],56.9 µM
same,IC50,[3],414 µM
CCCCN1C(=O)O/C(=C/C(=O)N2CCOCC2)C1(C)CC (stereo not drawn) [OH],IC50,[1],54.2 µM
same,IC50,[2],92.9 µM
same,IC50,[3],319 µM
CCN(CC)C(=O)/C=C1\OC(=O)N(Cc2ccccc2)C1(C)C [OC],IC50,[1],99.5 µM
same,IC50,[2],163 µM
same,IC50,[3],494 µM
CCCCN1C(=O)O/C(=C/C(=O)N2CCOCC2)C12CCCCC2 [OD],IC50,[1],154 µM
same,IC50,[2],338 µM
same,IC50,[3],506 µM
"COc1cccc2c1C(=O)c1c(O)c3c(c(O)c1C2=O)C[C@@](O)(C(=O)CO)C[C@@H]3O[C@H]1C[C@H](N)[C@H](O)[C@H](C)O1 [DOX, doxorubicin, reference compound]",IC50,[1],3.61 µM
same,IC50,[2],4.04 µM
same,IC50,[3],31.8 µM
CCCCN1C(=O)O/C(=C\C(=O)N2CCOCC2)C12CCCCC2 [OE],IC50,[1],129 µM
same,IC50,[2],304 µM
same,IC50,[3],978 µM
CC1(C)/C(=C/C(=O)N2CCOCC2)OC(=O)N1Cc1ccccc1 [OG],IC50,[1],134 µM
same,IC50,[2],345 µM
same,IC50,[3],677 µM
